For series [1], the system named is platelet-rich plasma (PRP), platelet aggregation induced by ADP. Kind of series: Platelet aggregation inhibiting action 2 (ADP-induced aggregation in PRP). In kind it is cell-based. Particulars: human PRP, aggregation induced by ADP (final 1 to 10 μM), compound added 1 minute before. The method, then: (§1) The blood collected from the human medial cubital vein was centrifuged 800 rpm for 10 minutes, and the upper portion was collected as platelet-rich plasma (PRP). PRP was dispensed to small test tubes, and ADP was added thereto (the final concentration 1 to 10 μM) to induce platelet aggregation. The degree of platelet aggregation was measured as a change in turbidity by a platelet aggregation measuring device (Hematracer 1, Nikko Bioscience). Each compound was added 1 minute before the addition of ADP, and a concentration at which aggregation was 50% inhibited was calculated as IC50 value.

Series [2] relates to platelet-rich plasma (PRP), platelet aggregation induced by TXA2 agonist U-46619. Nature of the series: Platelet aggregation inhibiting action 1 (U-46619-induced aggregation in PRP). In kind it is cell-based. Particulars: human PRP, aggregation induced by U-46619 (final 1 to 4 μM), compound added 1 minute before. The method, then:
as §1, with “was centrifuged at 800 rpm” for “was centrifuged 800 rpm”, “tubes, and TXA2 agonist U-46619 was added” for “tubes, and ADP was added”, “1 to 4 μM) to” for “1 to 10 μM) to”, “addition of U-46619, and a” for “addition of ADP, and a”, “calculated as a IC50 value.” for “calculated as IC50 value.”

The target of the next series is T1, PGI2 receptor (Homo sapiens, UniProt P43119).
T1 construct: 0.1 mg protein/ml of platelet membrane fraction suspension (100 μl) at 4° C. for 60 minutes; from tissue; host or cells: platelets (membrane fraction)
Nature of the series: PGI2 receptor binding experiment (tritium-labeled compound A, platelet membrane fraction). Particulars: tritium-labeled compound A 10 nM, 4° C., 60 minutes, read-out: PGI2 receptor affinity Ki. How it is done:
As a PGI2 receptor ligand, tritium-labeled (1R, 2R, 3aS, 8bS)-2,3,3a,8b-tetrahydro-2-hydroxy-1-[(E)-(3S, 4S)-3-hydroxy-4-methyl-1-octene-6-ynyl]-1H-cyclopenta [b]benzofuran-4-butanoic acid (compound A) was used. A saturation test was conducted by reaction of compound A (100 μl) at a final concentration of 3 to 100 nM and 0.1 mg protein/ml of platelet membrane fraction suspension (100 μl) at 4° C. for 60 minutes under shaking. Competitive experiment was carried out by reaction of a mixed solution (100 μl) of a test compound dissolved in an appropriate solvent and diluted and compound A at a final concentration of 10 nM, and 0.1 mg protein/ml of platelet membrane fraction suspension (100 μl) at 4° C. for 60 minutes under shaking. After the completion of reaction, the membrane fraction was recovered on a glass filter by a cell harvester, and washed with an ice-cold buffer. Then, radioactivity was measured by a scintillation counter. Nonspecific binding to a substance other than the receptor was determined by reaction in the presence of beraprost sodium at a final concentration of […]. In the competitive experiment, IC50 value and Hill coefficient of each of test compounds were determined by pseudo-Hill plots, and the receptor dissociation constant (Ki value) was determined from the IC50 value and the receptor dissociation constant (Kd value) of compound A, which was obtained by saturation experiment, according to the following equation:
Ki value=IC50 value/[1+(radioactive ligand concentration/Kd value)]

The next series has as its target T2, TXA2 receptor (Homo sapiens, UniProt P21731).
T2 construct: The finally obtained sediment was used as a platelet membrane fraction; from tissue; host or cells: human platelets (membrane fraction from venous blood)
T2 sequence (P21731 1-343): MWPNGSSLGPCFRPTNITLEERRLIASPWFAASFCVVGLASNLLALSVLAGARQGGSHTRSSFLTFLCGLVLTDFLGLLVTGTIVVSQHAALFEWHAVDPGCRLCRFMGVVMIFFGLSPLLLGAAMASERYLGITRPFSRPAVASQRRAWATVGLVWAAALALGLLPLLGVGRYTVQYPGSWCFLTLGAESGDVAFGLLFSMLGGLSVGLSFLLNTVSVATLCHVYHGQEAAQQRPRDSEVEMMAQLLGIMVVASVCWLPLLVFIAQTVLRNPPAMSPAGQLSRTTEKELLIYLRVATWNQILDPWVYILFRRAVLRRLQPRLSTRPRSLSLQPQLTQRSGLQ
Kind of series: TXA2 receptor binding test ([3H]SQ29548, platelet membrane fraction). Particulars: [3H]SQ29548 10 nM, 25° C., 30 minutes, read-out: TXA2 receptor affinity Ki. The method, then:
The blood collected from the human antebrachial vein and 1/10 volume of ACD solution (85 mM trisodium citrate, 65 mM citric acid, 2% glucose) were mixed, and 8 ml of the mixture was dispensed to each of Spitz tubes. The platelet-rich plasma obtained by centrifugation at room temperature and 200×g for 10 minutes was further centrifuged at 1000×g for 15 minutes to obtain platelets. The thus-obtained platelets were centrifugally washed with a cleaning buffer (115 mM sodium chloride, 4.3 mM potassium dihydrogen phosphate, 5.5 mM glucose, 1 mM disodium EDTA, 10 μM […], pH 6.5), and 1 ml of a dissolution buffer (10 mM tris(hydroxymethyl)aminomethane, 5 mM magnesium chloride, 2 mM disodium EDTA, pH 7.4) was added to-the platelets, followed by three times of freezing in liquid nitrogen and melting at room temperature to crush the platelets. The crushed platelets were cleaned by three times of ultracentrifugation (40000×g, 20 minutes each) using […] ice-cold tris-hydrochloric acid buffer. The finally obtained sediment was used as a platelet membrane fraction.
As a TXA2 receptor ligand, tritium-labeled SQ29548 ([^3H]SQ29548) was used. As a solvent for receptor binding reaction, a 50 mM tris-hydrochloric acid buffer ([…] magnesium chloride, pH 7.4) was used. A saturation test was conducted by reaction of [^3H]SQ29548 (100 μl) at a final concentration of 3 to 100 nM and 0.1 mg protein/ml of platelet membrane fraction suspension (100 μl) at 25° C. for 30 minutes under shaking. […] Then, radioactivity was measured by a scintillation counter. Nonspecific binding to a substance other than the receptor was determined by reaction in the presence of SQ29548 at a final concentration of […]. In the competitive experiment, IC50 value and Hill coefficient of each of the test compounds were determined by pseudo-Hill plots, and the receptor dissociation constant (Ki value) was determined from the IC50 value and the receptor dissociation constant (Kd value) of [^3H]SQ29548, which was obtained by saturation experiment, according to the following equation: […]

We go through 19 compounds from patent US6407096B1, “Benzene fused heterocyclic derivatives having thromboxane A2 receptor antagonistic activity and prostaglandin I2 Agonistic activity and application thereof” (Toray Industries, Inc., priority 1998, dated 2002).

Usually melting point stands for the temperature of the solid-liquid transition. A word on the IC50: it is the midpoint of a concentration-inhibition curve. A high value points to a need for much substance. In general, Ki refers to a measure of affinity in units of concentration, obtained from inhibition or displacement.

T1 sequence (P43119 whole entry): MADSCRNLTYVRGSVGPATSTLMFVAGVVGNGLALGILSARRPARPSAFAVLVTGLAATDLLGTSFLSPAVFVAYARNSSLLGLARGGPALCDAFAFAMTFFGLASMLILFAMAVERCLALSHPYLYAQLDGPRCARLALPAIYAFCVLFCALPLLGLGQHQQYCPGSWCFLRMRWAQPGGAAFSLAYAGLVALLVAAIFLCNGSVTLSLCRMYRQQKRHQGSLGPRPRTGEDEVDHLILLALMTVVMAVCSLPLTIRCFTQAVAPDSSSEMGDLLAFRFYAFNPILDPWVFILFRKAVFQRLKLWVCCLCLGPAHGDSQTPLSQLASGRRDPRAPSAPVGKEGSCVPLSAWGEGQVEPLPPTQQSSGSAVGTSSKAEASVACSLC

`COC(=O)COc1cccc2c1OCCN2CCSC(c1ccccc1)c1ccccc1` displayed a melting point of 94 to 95 °C.

With `CC(SCCN1CCOc2c(OCC(=O)[O-])cccc21)(c1ccccc1)c1ccccc1.[Na+]`, the melting point was 110 °C. The compound `COC(=O)COc1cccc2c1OCCN2CCSC(C)(c1ccccc1)c1ccccc1` [Example 2, Methyl (4-(2-(1,1-diphenylethylthio)ethyl)-3,4-dihydro-2H-1,4-benzoxazin-8-yloxy)acetate] returned a melting point of 101 °C. `COC(=O)COc1cccc2c1OCC(=O)N2CC(=O)NC(c1ccccc1)c1ccccc1` [Example 12, Methyl (4-((diphenylmethylcarbamoyl)methyl)-3-oxo-3,4-dihydro-2H-1,4-benzoxazin-8-yloxy)acetate] gave a melting point of 183 to 184 °C. As to `O=C(O)COc1cccc2c1OCCN2CCSC(c1ccccc1)c1ccccc1` [Example 20, (4-(2-(diphenylmethylthio)ethyl)-3,4-dihydro-2H-1,4-benzoxazin-8-yloxy)acetic acid], the melting point turned out to be 172.5 °C. For the same compound, 2 µM corresponded to half-maximal inhibition in series [1] (IC50). Besides, the IC50 in series [2] was 1.3 µM.

For `CC(SCCN1CCOc2c(OCC(=O)O)cccc21)(c1ccccc1)c1ccccc1` [Example 21, (4-(2-(1,1-diphenylethylthio)ethyl)-3,4-dihydro-2H-1,4-benzoxazin-8-yloxy)acetic acid], the melting point was in the range of 161 to 161.5 °C. The compound also gave an IC50 in series [1] of 1.8 µM. Moreover, on PGI2 receptor, the Ki came to 0.43 µM. Moreover, in series [2], the IC50 was 0.55 µM. Also, the Ki at TXA2 receptor came out at 0.05 µM.

The compound `O=C(O)COc1cccc2c1OCCN2CCSC(c1ccccc1)(c1ccccc1)C(F)(F)F` [Example 22, (4-(2-(1,1-diphenyl-2,2,2-trifluoroethylthio)ethyl)-3,4-dihydro-2H-1,4-benzoxazin-8-yloxy)acetic acid] came in with a melting point of 140 to 140.5 °C.

`CC(SCCN1CCOc2c(OCC(=O)O)cccc21)(c1ccc(F)cc1)c1ccc(F)cc1` [Example 23, (4-(2-(1,1-bis-(4-fluorophenyl)ethylthio)-ethyl)-3,4-dihydro-2H-1,4-benzoxazin-8-yloxy)acetic acid]: the melting point was in the range of 142 to 143 °C. Still for that read-out and setting: to `CC(C)(SCCN1CCOc2c(OCC(=O)O)cccc21)c1ccccc1` [Example 24, (4-(2-(1-methyl-1-phenylethylthio)ethyl)-3,4-dihydro-2H-1,4-benzoxazin-8-yloxy)acetic acid] belongs 114 °C. The compound `O=C(O)COc1cccc2c1OCCN2CCSCc1ccccc1` [Example 25, (4-(2-(benzylthio)ethyl)-3,4-dihydro-2H-1,4-benzoxazin-8-yloxy) acetic acid] showed a melting point of 127 to 131 °C. The same measure, in the same setting: to `CC(CSCCN1CCOc2c(OCC(=O)O)cccc21)(c1ccccc1)c1ccccc1` [Example 26, (4-(2-(2,2-diphenylpropylthio)ethyl)-3,4-dihydro-2H-1,4-benzoxazin-8-yloxy)acetic acid] belongs 138 to 139 °C.

`CC(SCCN1CCOc2c(OCC(=O)O)cccc21)(c1ccsc1)c1ccsc1` [Example 27] yielded a melting point of 149 °C. Take `O=C(O)COc1cccc2c1OCCN2CCOC(c1ccccc1)c1ccccc1` [Example 28, (4-(2-(diphenylmethoxy)ethyl)-3,4-dihydro-2H-1,4-benzoxazin-8-yloxy)acetic acid]: the melting point was 112 to 113 °C. The midpoint of inhibition in series [1], the IC50, lay at 16 µM. Moreover, the IC50 in series [2] is 5.7 µM. As to `CC(OCCN1CCOc2c(OCC(=O)O)cccc21)(c1ccccc1)c1ccccc1` [Example 29, (4-(2-(1,1-diphenylethoxy)ethyl)-3,4-dihydro-2H-1,4-benzoxazin-8-yloxy)acetic acid], the melting point worked out at 108 °C. Further, the IC50 in series [1] is 16 µM. The IC50 in series [2] was found to be 5.5 µM. For `CC(SCCN1C(=O)COc2c(OCC(=O)O)cccc21)(c1ccccc1)c1ccccc1` [Example 31, (4-(2-(1,1-diphenylethylthio)ethyl)-3-oxo-3,4-dihydro-2H-1,4-benzoxazin-8-yloxy)acetic acid], the melting point came to 106 °C. Still for that read-out and setting: to `O=C(O)COc1cccc2c1OCC(=O)N2CC(=O)NC(c1ccccc1)c1ccccc1` [Example 32, (4-((diphenylmethylcarbamoyl)methyl)-3-oxo-3,4-dihydro-2H-1,4-benzoxazin-8-yloxy)acetic acid] belongs 232 to 234 °C; to `CC(SCCN1C(=O)COc2c(CCC(=O)O)cccc21)(c1ccccc1)c1ccccc1` [Example 33, 3-(4-(2-(1,1-diphenylethylthio)ethyl)-3-oxo-3,4-dihydro-2H-1,4-benzoxazin-8-yl)propionic acid], 110.1 °C.

`CC(SCCN1CCCc2c(OCC(=O)O)cccc21)(c1ccccc1)c1ccccc1` [Example 34, (1-(2-(1,1-diphenylethylthio)ethyl)-1,2,3,4-tetrahydroquinolin-5-yloxy)acetic acid]: the melting point lay in the range of 150.5 to 152 °C. For the same compound, it took 1.3 µM to reach half-maximal inhibition in series [1] (IC50). The Ki on PGI2 receptor was 0.52 µM. For the same compound, the 50% inhibitory concentration (IC50) in series [2] was found to be 0.59 µM. Moreover, the Ki at TXA2 receptor stood at 0.12 µM. `CC(SCCC1COc2c(OCC(=O)O)cccc21)(c1ccccc1)c1ccccc1` (centres unmarked) [Example 37, (3-(2-(1,1-diphenylethylthio)ethyl)-2,3-dihydrobenzofuran-7-yloxy)acetic acid] displayed a melting point of 65 to 67 °C. Moreover, the IC50 in series [1] was found to be 1.8 µM. The same compound displayed an IC50 in series [2] of 0.49 µM.
